Experimental data: patent US20250213532A1, “5-METHOXY-N,N-[…][…] THE TREATMENT OF BIPOLAR DISORDER” (GH RESEARCH IRELAND LIMITED, priority 2022, published 2025)

Assay: Pharmacokinetics after single inhaled dose (LC-MS/MS)
Type: in vivo, human
Method: Blood samples were obtained at 1; 2; 4; 7; 10; 15; 20; 30; 45 min and 1; 1.5; 2; 3; 4 hours after administration.
PK parameters were generated by algebraic analysis of the concentration versus time plots for each individual. The analysis was carried out using the software Phoenix WinNonlin 6.3.

CN(C)CCc1c[nH]c2ccc(O)cc12 [bufotenine]
Samples with bufotenine concentration above LLOQ (after inhaled 5-MeO-DMT, LLOQ 25 pg/ml): Only in few samples
Bufotenine blood concentrations under uptitration scheme vs single dose (subjects receiving an uptitration scheme included): Substantially similar observations
